Assay results taken from PMC10484568 (Chemical communications (Cambridge, England), 2019).
Values after ≈ are worked out from the molar mass of the structure shown. Where a SMILES comes first, the peptide text is derived from it. Bridges are numbered along the chain shown (N, C = ends). [ ]: non-standard residue; d: D form. The star is where a group is joined. X1 = CC[C@H](C)CCCCC(=O)*; Dab = NCC[C@H](N)C(=O)O

Key:
Format in all cases: cell-based
MRSA = tested on: MRSA
MRSE = tested on: MRSE
E. coli = tested on: E. coli
P. aeruginosa = tested on: P. aeruginosa
Hemolytic activity = test: Hemolytic activity

With CC[C@H](C)CCCCC(=O)N[C@@H](CCN)C(=O)N[C@H](C(=O)N[C@@H](CCN)C(=O)N[C@H]1CCNC(=O)[C@H]([C@@H](C)O)NC(=O)[C@H](CCN)NC(=O)[C@H](CCN)NC(=O)[C@H](CC(C)C)NC(=O)[C@@H](CC(C)C)NC(=O)[C@H](CCN)NC1=O)[C@@H](C)O [Colistin, colistin] (X1-[Dab]T[Dab][Dab][Dab][dL]L[Dab][Dab]T; lactam 4-C (inferred); N-terminus assumed) the “Activity against MRSA (in words)” value (MRSA) was “not active”, the “MIC MRSA (Gram positive)” value (MRSA; multidrug resistant strain) was >50 µg/mL and the “MIC MRSE (Gram positive)” value (MRSE) was > 50 µg/mL. The “MIC E. coli (Gram negative)” value (E. coli) was 0.5 µg/mL (≈ 0.428 µM), the “MIC P. aeruginosa (Gram negative)” value (P. aeruginosa) was 0.5 µg/mL (≈ 0.428 µM) and the HC50 (Hemolytic activity) was > 250 µg/mL.
